Experiments:
Experiment in all cases: relative viability (nuclei count vs DMSO), 5 days (fraction); higher = more cells survive
BAY61-3606 + Palbociclib = compound: COC1=C(C=C(C=C1)C2=CC3=NC=CN3C(=N2)NC4=C(C=CC=N4)C(=O)N)OC [BAY61-3606] + CC(=O)c1c(C)c2cnc(Nc3ccc(N4CCNCC4)cn3)nc2n(C2CCCC2)c1=O [Palbociclib] (partner 0.5 µM)
Procedure, shortened: (§1)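 One day after seeding in 1536-well plates, lung cancer cell lines were dosed by pin tool. Dosing was either single-drug or a fixed anchor-drug dose plus five library-drug doses (not always all listed) in √10 steps. After 5 days, nuclei were stained in one fix-and-stain step and counted on 4× images, and relative viability is the nuclei count of treated wells over that of vehicle wells, given as the median of duplicate plates.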

[1] = compound: COc1cccc2c1C(=O)c1c(O)c3c(c(O)c1C2=O)C[C@@](O)(C(=O)CO)C[C@@H]3O[C@H]1C[C@H](N)[C@H](O)[C@H](C)O1 [Doxorubicin] + CC(=O)c1c(C)c2cnc(Nc3ccc(N4CCNCC4)cn3)nc2n(C2CCCC2)c1=O [Palbociclib] (partner 0.5 µM)
Procedure, shortened: as §1

BAY61-3606 + Luminespib = compound: COC1=C(C=C(C=C1)C2=CC3=NC=CN3C(=N2)NC4=C(C=CC=N4)C(=O)N)OC [BAY61-3606] + CCNC(=O)c1noc(-c2cc(C(C)C)c(O)cc2O)c1-c1ccc(CN2CCOCC2)cc1 [Luminespib] (partner 0.01 µM)
Procedure, shortened: as §1

BAY61-3606 + AZD7762 = compound: COC1=C(C=C(C=C1)C2=CC3=NC=CN3C(=N2)NC4=C(C=CC=N4)C(=O)N)OC [BAY61-3606] + NC(=O)Nc1cc(-c2cccc(F)c2)sc1C(=O)N[C@H]1CCCNC1 [AZD7762] (partner 0.2 µM)
Procedure, shortened: as §1

| Cell Line | relative viability (BAY61-3606 + Palbociclib; first compound 0.02 µM) | relative viability (BAY61-3606 + Palbociclib; first compound 0.06325 µM) | relative viability (BAY61-3606 + Palbociclib; first compound 0.2 µM) | relative viability (BAY61-3606 + Palbociclib; first compound 0.6325 µM) | relative viability (BAY61-3606 + Palbociclib; first compound 2 µM) | relative viability ([1]; first compound 0.001 µM) | relative viability ([1]; first compound 0.003162 µM) | relative viability ([1]; first compound 0.01 µM) | relative viability ([1]; first compound 0.03162 µM) | relative viability ([1]; first compound 0.1 µM) | relative viability (BAY61-3606 + Luminespib; first compound 0.02 µM) | relative viability (BAY61-3606 + Luminespib; first compound 0.06325 µM) | relative viability (BAY61-3606 + Luminespib; first compound 0.2 µM) | relative viability (BAY61-3606 + Luminespib; first compound 0.6325 µM) | relative viability (BAY61-3606 + Luminespib; first compound 2 µM) | relative viability (BAY61-3606 + AZD7762; first compound 0.02 µM) | relative viability (BAY61-3606 + AZD7762; first compound 0.06325 µM) | relative viability (BAY61-3606 + AZD7762; first compound 0.2 µM) | relative viability (BAY61-3606 + AZD7762; first compound 0.6325 µM) | relative viability (BAY61-3606 + AZD7762; first compound 2 µM) |
| --- | --- | --- | --- | --- | --- | --- | --- | --- | --- | --- | --- | --- | --- | --- | --- | --- | --- | --- | --- | --- |
| COR-L23 | 0.338 | 0.252 | 0.377 | 0.347 | 0.215 | 0.327 | 0.274 | 0.236 | 0.181 | 0.106 | 0.672 | 0.728 | 0.674 | 0.806 | 0.372 | – | – | – | – | – |
| ABC-1 | 0.39 | 0.576 | 0.705 | 0.796 | 0.716 | 0.651 | 0.712 | 0.543 | 0.471 | 0.368 | 0.985 | 0.549 | 0.529 | 0.81 | 0.338 | 0.644 | 0.793 | 0.716 | 0.701 | 0.873 |
| NCI-H522 | 0.938 | 0.823 | 1.23 | 0.982 | 0.704 | 0.986 | 1.19 | 1.08 | 0.89 | 1.04 | 1.05 | 1.13 | 1.16 | 1.12 | 0.89 | 0.796 | 0.698 | 0.692 | 0.762 | 0.822 |
| SW 1573 | 0.455 | 0.423 | 0.35 | 0.344 | 0.248 | 0.365 | 0.316 | 0.162 | 0.0939 | 0.0476 | 0.192 | 0.204 | 0.197 | 0.214 | 0.204 | – | – | – | – | – |
| SW 900 | 0.518 | – | – | 0.566 | 0.434 | – | 0.604 | 0.543 | 0.452 | 0.519 | 0.172 | 0.188 | 0.179 | 0.219 | 0.162 | 0.591 | – | – | 0.632 | 0.758 |
| A-427 | 0.484 | 0.521 | 0.544 | 0.524 | 0.479 | 0.518 | 0.526 | 0.517 | 0.449 | 0.363 | 0.842 | 0.928 | 0.86 | 0.965 | 0.808 | 0.831 | 0.689 | 0.659 | 0.752 | 0.682 |
| NCI-H1915 | 0.54 | 0.565 | 0.537 | 0.551 | 0.375 | 0.581 | 0.536 | 0.549 | 0.483 | 0.543 | 0.777 | 0.86 | 0.686 | 0.731 | 0.369 | 0.658 | 0.708 | 0.641 | 0.659 | 0.66 |
| LOU-NH91 | 0.547 | 0.503 | 0.529 | 0.508 | 0.557 | – | 0.459 | 0.564 | 0.526 | 0.416 | 0.375 | 0.294 | 0.396 | 0.379 | 0.317 | 0.792 | 0.686 | 0.748 | 0.784 | 0.656 |
| NCI-H1734 | 0.361 | 0.327 | 0.367 | 0.351 | 0.214 | 0.408 | 0.425 | 0.324 | 0.263 | 0.344 | 0.26 | 0.179 | 0.188 | 0.278 | 0.167 | 0.554 | 0.508 | 0.557 | 0.502 | 0.374 |
| HCC-366 | 0.44 | 0.46 | 0.324 | 0.326 | 0.255 | 0.352 | 0.456 | 0.361 | 0.275 | 0.361 | – | – | – | – | – | 0.286 | 0.222 | 0.282 | 0.265 | 0.283 |
| NCI-H1703 | – | – | – | – | – | – | – | – | – | – | – | – | – | – | – | 0.119 | – | – | 0.108 | 0.137 |
| COR-L 105 | 0.443 | 0.437 | 0.404 | 0.422 | 0.411 | 0.436 | 0.387 | 0.367 | 0.37 | 0.327 | 0.827 | 0.689 | 0.75 | 0.76 | 0.503 | – | – | – | – | – |
| NCI-H2009 | 0.22 | 0.211 | 0.214 | 0.231 | 0.155 | 0.238 | 0.207 | 0.179 | 0.0594 | 0.168 | 1.08 | 1.04 | 0.976 | 0.992 | 0.902 | – | – | – | – | – |
| SK-MES-1 | 0.312 | 0.311 | 0.385 | 0.393 | 0.313 | 0.326 | 0.319 | 0.321 | 0.281 | 0.23 | 0.862 | 0.759 | 0.791 | 0.805 | 0.304 | – | – | – | – | – |
| NCI-H1648 | 0.251 | 0.259 | 0.265 | – | 0.276 | 0.283 | 0.294 | 0.286 | 0.245 | 0.258 | – | – | – | – | – | 0.723 | 0.696 | 0.777 | – | 0.643 |
| NCI-H520 | 0.218 | 0.246 | 0.254 | 0.265 | 0.22 | 0.213 | 0.216 | 0.183 | 0.175 | 0.203 | 0.216 | 0.237 | 0.258 | 0.231 | 0.223 | – | – | – | – | – |
| NCI-H596 | – | – | – | – | – | – | – | – | – | – | 0.941 | 1.14 | 0.929 | 1.3 | 0.62 | 1.04 | 0.929 | 1.13 | 1.7 | 0.846 |
| NCI-H2228 | 0.989 | 0.916 | 0.731 | 0.766 | 0.553 | 0.508 | 0.914 | 0.555 | 0.301 | 0.184 | 0.13 | 0.175 | 0.125 | 0.199 | 0.177 | – | – | – | – | – |
| NCI-H661 | 0.408 | 0.378 | 0.413 | 0.42 | 0.477 | 0.384 | 0.407 | 0.396 | 0.36 | 0.34 | 0.902 | 0.917 | 0.867 | 0.879 | 0.823 | – | – | – | – | – |
| NCI-H2023 | 0.393 | 0.401 | 0.397 | 0.423 | 0.283 | 0.368 | 0.368 | 0.254 | 0.169 | 0.0764 | 0.885 | 0.614 | 0.669 | 0.778 | 0.535 | – | – | – | – | – |

From the supplement of paper PMC10307832
